# Laboratory results taken from patent EP1158297A1, “METHOD FOR SCREENING COMPOUND HAVING AFFINITY FOR VITAMIN D RECEPTOR” (CHUGAI SEIYAKU KABUSHIKI KAISHA, priority 1999, dated 2000).
# Like-named read-outs stand apart in the source and are kept apart here.
# Key:
# [1] = system: osteoporosis model rats; format: in vivo; conditions: OVX rats, third lumbar vertebra
# Procedure: 7- to 9-week-old W-I female rats (Imamichi Institute for Animal Reproduction) were subject to ovariectomy. […] After the last dose, 24-hour urine was sampled and the blood was taken under ether anesthesia. After the animal was euthanized, the lumbar vertebrae were removed.
# The lumbar bone mineral density was measured at the third lumbar vertebra site using a dual X-ray bone mineral content measuring device (DCS-600, ALOKA). The blood and urinary calcium concentrations and the urinary creatinine concentration were measured with an automatic analyzer (Model 7170, Hitachi).
# Statistical processing was carried out using Statistic Analysis System (SAS) software. A comparison between a sham operation (sham) group and an ovariectomy (OVX) group was made by an unpaired t-test. A comparison between the OVX group and the drug treatment group, or a comparison between the sham group and the drug treatment group was made by Dunnett's multiple test. A P-value less then 5% was considered as a significant difference.
# [2] = system: NF-κB family; assay: Reporter gene (luciferase) assay using reporter gene vector having NF-κB binding sequence; format: cell-based, human; conditions: IC37.5 value expressed as percentage of the value of 1α,25-dihydroxyvitamin D3 (100%); Jurkat cells with rat vitamin D receptor expression vector, PMA and ionomycin stimulation; lower = more potent
# Text: (§1) A basic vector was constructed by inserting a promoter region (-72/+47) of a human IL-2 gene into a cassette vector of luciferase (pXP2; described in S.K. Nordeen, Biotechniques, Vol. 6, pp. 454-456, (1988)). For a reporter gene vector having an AP-1 binding sequence, five AP-1 binding sequences ([…]) of a human collagenase (MMP-1) gene were inserted tandem into the basic vector. For a reporter gene vector having an NF-κB binding sequence, four NF-κB binding sequences ([…]) of a human immunoglobulin light chain κ gene were inserted tandem into the basic vector. The resulting products were used as the respective reporter gene vectors.
# (§2) The rat vitamin D receptor expression vector used was a product obtained by inserting cDNA of a rat vitamin D receptor (described in James K. Burmester et al., Proc. Natl. Acad. Sci. USA, Vol. 85, pp. 9499-9502, […]) into the pSG5 ([…]).
# (§3) Jurkat cells were cultured in RPMI-1640 (GIBCO BRL) containing 10% FBS and antibiotics. The culture was started at a density of 5 x 10^4 cells/mL and the cells were subcultured at intervals of 3 or 4 days to a density of 5 x 10^4 cells/mL. The conditions for culture were 37°C and 5% CO2. […] Both of the solutions were mixed and then allowed to stand for 30 minute at room temperature.
# [3] = molecular target: T1, vitamin D receptor (Homo sapiens, UniProt P11473); assay: Affinity for vitamin D receptor; format: binding; conditions: relative to that of 1α,25-dihydroxyvitamin D3
# T1 sequence (P11473 1-427): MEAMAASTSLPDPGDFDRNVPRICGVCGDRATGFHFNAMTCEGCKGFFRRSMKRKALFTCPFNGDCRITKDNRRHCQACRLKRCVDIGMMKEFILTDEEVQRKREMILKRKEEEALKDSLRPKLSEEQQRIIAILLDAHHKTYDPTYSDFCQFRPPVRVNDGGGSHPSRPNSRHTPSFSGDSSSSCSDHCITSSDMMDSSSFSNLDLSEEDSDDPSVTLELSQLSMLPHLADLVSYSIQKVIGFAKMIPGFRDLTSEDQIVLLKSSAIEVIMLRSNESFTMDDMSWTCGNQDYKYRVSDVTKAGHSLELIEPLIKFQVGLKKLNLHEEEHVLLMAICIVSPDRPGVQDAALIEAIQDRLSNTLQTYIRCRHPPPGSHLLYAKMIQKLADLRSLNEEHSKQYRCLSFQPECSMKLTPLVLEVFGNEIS
# [4] = system: VDRE; assay: Reporter gene (CAT) assay using reporter gene vector having VDRE; format: cell-based, African green monkey; conditions: for VDRE-mediated transcription promoting activity: relative value with the EC50 value of 1α,25-dihydroxyvitamin D3 as 100%, COS-1 cells with rat vitamin D receptor expression vector, CAT ELISA, lower = more potent
# Text: The reporter gene vector having VDRE used was a product produced by integrating VDRE ([…]) of a mouse osteopontin gene into a cassette vector (pGCAT; Kato S. et al., Cell (1992)68, 731-742) containing a promoter region (-109/+10) of rabbit β-globin and CAT (chloramphenicol acetyltransferase). As an expression vector for β-galactosidase used for correction of transfection efficiency, pCH110 (Pharmacia) was used. As a carrier vector, BSM (BluescribeM13+: […]) was used.
# The rat vitamin D receptor expression vector used was a product obtained by integrating cDNA of a rat vitamin D receptor into pSG5 ([…]).
# COS-1 cells were cultured in a DMEM medium containing 5% FBS and 10 nM insulin, and cultures were subcultured at intervals of 3 or 4 days at a density of 1,500 to 3,000 cells/cm^2. The conditions for culture were 37°C and 5% CO2. For cultivation of COS-1 cells during reporter gene assay, a phenol red-free DMEM medium containing 5% DCC-FBS (charcoal-treated FBS) and 10 nM insulin was used. COS-1 cells were seeded into a 6-well plate at a density of 5 to 8 x 10^4 cells/1.75 mL/well. […]
# After overnight culture, each well was washed with 1 mL/well of a phenol red-free DMEM medium. […] Then, the amount of CAT expressed was measured using a CAT ELISA kit (Boehringer Mannheim).
# The cell lysate (10 µL), 175 µL of Buffer Z (60 mM Na2HPO4, 40 mM NaH2PO4, 10 mM KCl, 1 mM MgSO4) and 35 µL of 4 mg/mL ONPG (o-nitrophenyl-β-D-galactopyranoside; SIGMA) were mixed in a 96-well plate (Nunc-Immuno plate Maxi Sorp Surface) and the system was incubated for 1 hour at 37°C. Then, 100 µL of 1M Na2CO3 was added to terminate the reaction and A415 was measured with a plate reader. Based on the measured values, the number of units of the cell lysate was calculated from the following equation and the cell lysate in an amount corresponding to 15 units was used in CAT ELISA measurement. […]
# Based on the measured values of CAT ELISA, the EC50 value of each derivative was calculated to evaluate the VDRE-mediated action.
# [5] = system: osteoporosis model rats; assay: Bone strength decrease and bone resorption in osteoporosis model rats, oral treatment (Example 4); format: in vivo
# Procedure: 13-month-old W-I female rats (Imamichi Institute for Animal Reproduction) were subject to overiectomy. From the following day onward, Compound No. 22 was administered p.o. daily for 3 months in a daily dose of 1.5 to 6 µg/kg given as two divided doses. After the last dose, 24-hour urine was sampled and a blood sample was taken under ether anesthesia. After the animal was euthanized, the lumbar vertebrae were removed.
# The lumbar bone mineral density was measured at the second to fourth lumbar vertebra site using a dual X-ray bone mineral content measuring device (DCS-600EX, ALOKA). The bone strength of the fifth lumbar vertebra was measured with Autograph AG-2000E (Shimadzu Corp.). The blood calcium concentration and the urinary creatinine concentration were measured with an automatic analyzer (Model 7170, Hitachi). The urinary deoxypyridinoline was measured with Osteolinks DPD.
# Statistical Analysis was carried out using Statistic Analysis System (SAS) software. A comparison between the sham group and the OVX group was made by an unpaired t-test. A comparison between the OVX group and the Compound No. 22 treatment group, or a comparison between the sham group and the Compound No. 22 treatment group was made by Dunnett's multiple test, with the p value less than 5% showing a significant difference.
# [6] = system: AP-1 complex; assay: Reporter gene (luciferase) assay using reporter gene vector having AP-1 binding sequence; format: cell-based, human; conditions: IC37.5 value expressed as percentage of the value of 1α,25-dihydroxyvitamin D3 (100%); Jurkat cells with rat vitamin D receptor expression vector, PMA and ionomycin stimulation; lower = more potent
# Text: as §1, §2, §3
# [7] = system: osteoporosis model rats; assay: Bone mass decrease in osteoporosis model rats, oral treatment (Example 3); format: in vivo
# Procedure: 8-week-old W-I female rats (Imamichi Institute for Animal Reproduction) were subjected to overiectomy. From the following day onward, 1α-hydroxyvitamin D3 was orally administered 5 times weekly in a daily dose of 0.1 µg/kg, or Compound No. 22 was orally administered daily for 5 weeks in a daily dose of 3 µg/kg given as a single dose or two divided doses. After the last dose, 24-hour urine was sampled and a blood sample was taken under ether anesthesia. After the animal was euthanized, the lumbar vertebrae were removed. The lumbar bone mineral density was measured at the third lumbar vertebra site using a dual X-ray bone mineral content measuring device (DCS-600EX, ALOKA). The blood and urinary calcium concentrations and the urinary creatinine concentration were measured with an automatic analyzer (Model 7170, Hitachi).
# Statistical processing was carried out using basic software for statistical analysis (SAS). A comparison between the sham group and the OVX group, a comparison between the OVX group and the 1α-hydroxyvitamin D3 treatment group, or a comparison between the sham group and the 1α-hydroxyvitamin D3 treatment group was made by an unpaired t-test, with the p value less than 5% representing a significant difference. A comparison between the OVX group and the Compound No. 22 group, or a comparison between the sham group and the Compound No. 22 group was made by Dunnett's multiple test, with the p value less than 5% showing a significant difference.
# [8] = OVX rats, 0.1 µg/kg orally 5 times weekly, in comparison with the sham group and the OVX group
Structure (SMILES),decrease in bone mineral density ([1]; 0.1 µg/kg subcutaneously 5 times weekly for 6 weeks),decrease in bone mineral density ([1]; doses of 0.01 to 0.1 µg/kg subcutaneously 5 times weekly for 6 weeks),Inhibitory activity against NF-κB family [2] [%],affinity for a vitamin D receptor [3] [times],"VDRE-mediated transcription promoting activity relative to that of 1α,25-dihydroxyvitamin D3 ([4]; fraction of the activity of 1α,25-dihydroxyvitamin D3)",VDRE-mediated transcription promoting activity [4] [%],"serum Ca concentration ([5]; OVX rats, orally 0.75, 1.5 or 3 µg/kg twice daily for 3 months)","urinary Dpyr excretion increased by OVX ([5]; oral treatment twice daily for 3 months, urinary deoxypyridinoline, bone resorption marker)","decrease in the bone strength by OVX ([5]; orally 0.75, 1.5 or 3 µg/kg twice daily for 3 months, fifth lumbar vertebra)","decrease in the bone mineral density by OVX ([5]; orally 0.75, 1.5 or 3 µg/kg twice daily for 3 months, second to fourth lumbar vertebra)",Inhibitory activity against AP-1 complex [6] [%],"effect of suppressing the decrease in bone mineral density ([7]; OVX rats, orally 3 µg/kg once daily or 1.5 µg/kg twice daily for 5 weeks, third lumbar vertebra)","decrease in bone mineral density by OVX ([7]; 0.1 µg/kg orally 5 times weekly, third lumbar vertebra)","blood Ca level [7, 8]","urinary Ca excretion [7, 8]",decrease in bone mineral density ([1]; 0.04 µg/kg subcutaneously 5 times weekly for 6 weeks)
"C=C1/C(=C\C=C2/CCC[C@]3(C)C([C@@H](C)SCC(O)(CC)CC)=CC[C@@H]23)C[C@@H](O)C[C@@H]1O [Compound 22, 1α,3β-dihydroxy-20(R)-(2-ethyl-2-hydroxybutylthio)-9,10-secopregna-5,7,10(19),16-tetraene]",significant suppressing effect,dose-dependent effect of suppressing the decrease in bone mineral density,5.19,0.8,about 1/10,1032.20,without increases,significantly decreased,significantly suppressed,significantly suppressed,3.74,comparable to or higher than that of 1α-hydroxyvitamin D3,–,–,–,–
C=C1/C(=C\C=C2/CCC[C@]3(C)[C@@H]([C@H](C)CCCC(C)C)CC[C@@H]23)C[C@@H](O)C[C@@H]1O [1α-hydroxyvitamin D3],–,–,–,–,–,–,–,–,–,–,–,–,significantly suppressed,significantly increased,significantly increased,–
"C=C1/C(=C\C=C2/CCC[C@]3(C)[C@@H]([C@H](C)CCCC(C)(C)O)CC[C@@H]23)C[C@@H](O)C[C@@H]1O [1α,25-dihydroxyvitamin D3, reference compound]",–,–,–,–,–,100.00,–,–,–,–,–,–,–,–,–,significantly suppressed
